Assay results: ChEMBL document CHEMBL5550106, “Recent advances in the exploration of oxazolidinone scaffolds from compound development to antibacterial agents and other bioactivities” (Eur J Med Chem, 2024)
pIC50: −log10 of the molar value. ≈ marks a conversion by molar mass, not a printed value.

How the values were obtained:
[1] = system: MGC-803; assay: Antiproliferative activity against human MGC-803 cells assessed as reduction in cell growth by MTT assay; type: functional, cell-based
[2] = system: NCI-H460; assay: Antiproliferative activity against human NCI-H460 cells assessed as inhibition of cell growth by MTT assay; type: functional, cell-based
[3] = system: SK-OV-3; assay: Antiproliferative activity against human SK-OV-3 cells assessed as reduction in cell viability incubated for 24 hrs by CCK8 assay; type: functional, cell-based; settings: SK-OV-3, 24 h
[4] = system: L02; assay: Antiproliferative activity against human L02 cells assessed as inhibition of cell growth incubated for 24 hrs by MTT assay; type: functional, cell-based; settings: L02, 24 h
[5] = system: Escherichia coli; assay: Antibacterial activity against efflux pump-efficient Escherichia coli MG1655 assessed as bacterial growth inhibition; type: functional
[6] = system: Staphylococcus aureus; assay: Antibacterial activity against Staphylococcus aureus assessed as reduction in bacterial growth incubated for 24 hrs by broth microdilution method; type: functional
[7] = system: Escherichia coli; assay: Antibacterial activity against Escherichia coli MG1655 in presence of polymyxin B nonapeptide; type: functional
[8] = system: Escherichia coli; assay: Antimicrobial activity against wild type Escherichia coli MG1655 assessed as inhibition of microbial growth; type: functional
[9] = system: Staphylococcus epidermidis; assay: Antibacterial activity against Methicillin-resistant Staphylococcus epidermidis assessed as bacterial growth inhibition; type: functional
[10] = system: Staphylococcus aureus; assay: Antibacterial activity against Linezolid-resistant Staphylococcus aureus assessed as reduction in bacterial growth; type: functional
[11] = system: Staphylococcus aureus; assay: Antibacterial activity against Staphylococcus aureus assessed as reduction in microbial growth by CLSI based broth microdilution method; type: functional
[12] = system: Staphylococcus epidermidis; assay: Antibacterial activity against Staphylococcus epidermidis assessed as reduction in microbial growth after 24 hrs by CLSI based microdilution method; type: functional
[13] = system: Staphylococcus aureus; assay: Antibacterial activity against methicillin-resistant Staphylococcus aureus assessed as reduction in microbial growth by CLSI based broth microdilution method; type: functional
[14] = system: Staphylococcus epidermidis; assay: Antibacterial activity against linezolid-resistant Staphylococcus epidermidis assessed as reduction in bacterial growth; type: functional

Structure (SMILES) | pIC50 [1] | pIC50 [2] | pIC50 [3] | pIC50 [4] | also measured
CC(C)c1ccc2c(c1)CCC1[C@](C)(C(=O)OCC(O)CNc3cccc(Cl)c3)CCC[C@]21C (some centres not stated) | 5.15 | ≤ 4.81 | ≤ 4.83 | ≤ 4.55 | –
CC(C)c1ccc2c(c1)CCC1[C@](C)(C(=O)OCC3CN(c4cccc(F)c4)C(=O)O3)CCC[C@]21C (some centres not stated) | 5.42 | ≤ 5.37 | ≤ 5.39 | ≤ 4.58 | –
CC(C)c1ccc2c(c1)CCC1[C@](C)(C(=O)OCC3CN(c4ccc(Br)cc4)C(=O)O3)CCC[C@]21C (some centres not stated) | 5.42 | ≤ 5.37 | ≤ 5.39 | ≤ 4.58 | –
O=C1O[C@@H](CO)CN1c1ccc(-c2ccc([N+](=O)[O-])c(O)c2)c(F)c1 | – | – | – | – | MIC [5]: 64 µg/mL (≈ 184 µM); MIC [6]: 0.5 µg/mL (≈ 1.44 µM); MIC [7]: 64 µg/mL; MIC [8]: 64 µg/mL
O=C1O[C@@H](CO)CN1c1ccc(-c2cc(O)ccc2F)c(F)c1 | – | – | – | – | MIC [5]: 16 µg/mL (≈ 49.8 µM); MIC [6]: 2 µg/mL (≈ 6.23 µM); MIC [7]: 16 µg/mL; MIC [8]: > 256 µg/mL
Cc1cccc(NCC(O)COC(=O)[C@]2(C)CCC[C@]3(C)c4ccc(C(C)C)cc4CCC23)c1 (some centres not stated) | 5.15 | ≤ 4.81 | ≤ 4.83 | ≤ 4.55 | –
CC(=O)NC[C@H]1CN(c2ccc(-c3ccc4c(c3)CC3(C(=O)NC(=O)NC3=O)C3CCCN43)c(F)c2)C(=O)O1 (some centres not stated) | – | – | – | – | MIC [9]: < 1 µg/mL; MIC [10]: 16 µg/mL (≈ 29.9 µM); MIC [11]: 2 µg/mL; MIC [12]: 2 µg/mL; MIC [13]: 2 µg/mL; MIC [14]: 32 µg/mL (≈ 59.8 µM)
CC(C)c1ccc2c(c1)CCC1[C@](C)(C(=O)OCC(O)CNc3ccc(Cl)cc3)CCC[C@]21C (some centres not stated) | 5.15 | ≤ 4.81 | ≤ 4.83 | ≤ 4.55 | –
CC(C)c1ccc2c(c1)CCC1[C@](C)(C(=O)OCC(O)CNc3ccccc3F)CCC[C@]21C (some centres not stated) | 5.15 | ≤ 4.81 | ≤ 4.83 | ≤ 4.55 | –
COc1ccccc1NCC(O)COC(=O)[C@]1(C)CCC[C@]2(C)c3ccc(C(C)C)cc3CCC12 (some centres not stated) | 5.15 | ≤ 4.81 | ≤ 4.83 | ≤ 4.55 | –
O=C1NC(=O)C2(Cc3cc(-c4ccc(N5C[C@H](CO)OC5=O)cc4F)ccc3C3CCCCC32)C(=O)N1 (some centres not stated) | – | – | – | – | MIC [9]: < 1 µg/mL; MIC [10]: 32 µg/mL (≈ 63.1 µM); MIC [11]: 4 µg/mL; MIC [12]: 2 µg/mL; MIC [13]: 2 µg/mL; MIC [14]: 32 µg/mL (≈ 63.1 µM)
CC(C)c1ccc2c(c1)CCC1[C@](C)(C(=O)OCC(O)CNc3ccc(F)cc3)CCC[C@]21C (some centres not stated) | 5.15 | ≤ 4.81 | ≤ 4.83 | ≤ 4.55 | –
N#Cc1ccc(O)cc1-c1ccc(N2C[C@H](CO)OC2=O)cc1F | – | – | – | – | MIC [5]: 64 µg/mL (≈ 195 µM); MIC [6]: 32 µg/mL (≈ 97.5 µM); MIC [7]: 128 µg/mL; MIC [8]: > 256 µg/mL
Cc1ccccc1N1CC(COC(=O)[C@]2(C)CCC[C@]3(C)c4ccc(C(C)C)cc4CCC23)OC1=O (some centres not stated) | 5.42 | ≤ 5.37 | ≤ 5.39 | ≤ 4.58 | –
O=C1NC(=O)C2(Cc3cc(-c4ccc(N5C[C@H](CO)OC5=O)cc4F)ccc3N3CCOCC32)C(=O)N1 (some centres not stated) | – | – | – | – | MIC [9]: 2 µg/mL (≈ 3.92 µM); MIC [10]: 32 µg/mL (≈ 62.7 µM); MIC [11]: 8 µg/mL; MIC [12]: 4 µg/mL; MIC [13]: 4 µg/mL; MIC [14]: 32 µg/mL (≈ 62.7 µM)
COc1ccc(NCC(O)COC(=O)[C@]2(C)CCC[C@]3(C)c4ccc(C(C)C)cc4CCC23)cc1 (some centres not stated) | 5.15 | ≤ 4.81 | ≤ 4.83 | ≤ 4.55 | –
CC(C)c1ccc2c(c1)CCC1[C@](C)(C(=O)OCC3CN(c4ccccc4F)C(=O)O3)CCC[C@]21C (some centres not stated) | 5.42 | ≤ 5.37 | ≤ 5.39 | ≤ 4.58 | –
O=C1O[C@@H](CO)CN1c1ccc(-c2ccc3c(c2)CC2(C(=O)NCNC2=O)C2CCCCC32)c(F)c1 (some centres not stated) | – | – | – | – | MIC [9]: < 1 µg/mL; MIC [10]: 32 µg/mL (≈ 64.8 µM); MIC [11]: 4 µg/mL; MIC [12]: 2 µg/mL; MIC [13]: 2 µg/mL; MIC [14]: 32 µg/mL (≈ 64.8 µM)
COC(=O)NC[C@H]1CN(c2ccc(-c3ccc4c(c3)CC3(C(=O)NC(=O)NC3=O)C3CCCN43)c(F)c2)C(=O)O1 (some centres not stated) | – | – | – | – | MIC [9]: 2 µg/mL (≈ 3.63 µM); MIC [10]: 32 µg/mL (≈ 58 µM); MIC [11]: 2 µg/mL; MIC [12]: 2 µg/mL; MIC [13]: 2 µg/mL; MIC [14]: 32 µg/mL (≈ 58 µM)
COc1ccc(N2CC(COC(=O)[C@]3(C)CCC[C@]4(C)c5ccc(C(C)C)cc5CCC34)OC2=O)cc1 (some centres not stated) | 5.42 | ≤ 5.37 | ≤ 5.39 | ≤ 4.58 | –
C#Cc1cccc(NCC(O)COC(=O)[C@]2(C)CCC[C@]3(C)c4ccc(C(C)C)cc4CCC23)c1 (some centres not stated) | 5.15 | ≤ 4.81 | ≤ 4.83 | ≤ 4.55 | –
Cc1ccc(NCC(O)COC(=O)[C@]2(C)CCC[C@]3(C)c4ccc(C(C)C)cc4CCC23)cc1 (some centres not stated) | 5.15 | ≤ 4.81 | ≤ 4.83 | ≤ 4.55 | –
Cc1ccccc1NCC(O)COC(=O)[C@]1(C)CCC[C@]2(C)c3ccc(C(C)C)cc3CCC12 (some centres not stated) | 5.15 | ≤ 4.81 | ≤ 4.83 | ≤ 4.55 | –
